# Test results from PubChem BioAssay (NCI).
#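 Abbreviation: GI50, concentration required for 50% inhibition of growth. TGI: concentration producing complete growth inhibition.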
# Assays:
# Assay in all cases: inhibition of tumour cell growth, NCI panel, 384-well format
# SK-MEL-2 melanoma = system: SK-MEL-2 melanoma
# COLO 205 colon = system: COLO 205 colon
# NCI/ADR-RES ovarian = system: NCI/ADR-RES ovarian
# SF-539 CNS = system: SF-539 CNS
# K-562 leukemia = system: K-562 leukemia
# MDA-MB-468 breast = system: MDA-MB-468 breast
# SN12C renal = system: SN12C renal
# OVCAR-4 ovarian = system: OVCAR-4 ovarian
# NCI-H23 lung = system: NCI-H23 lung
# RPMI-8226 leukemia = system: RPMI-8226 leukemia
# SK-MEL-28 melanoma = system: SK-MEL-28 melanoma
# SR leukemia = system: SR leukemia
# UO-31 renal = system: UO-31 renal
# NCI-H460 NSCLC = system: NCI-H460 NSCLC
# HCT-15 colon = system: HCT-15 colon
# RXF 393 renal = system: RXF 393 renal
# HCC-2998 colon = system: HCC-2998 colon
# NCI-H522 lung = system: NCI-H522 lung
# MOLT-4 leukemia = system: MOLT-4 leukemia
# 786-0 renal = system: 786-0 renal
# OVCAR-3 ovarian = system: OVCAR-3 ovarian
# CAKI-1 renal = system: CAKI-1 renal
# HL-60(TB) leukemia = system: HL-60(TB) leukemia
# SK-OV-3 ovarian = system: SK-OV-3 ovarian
# BT-549 breast = system: BT-549 breast
# MCF7 breast = system: MCF7 breast
# MDA-MB-435 melanoma = system: MDA-MB-435 melanoma
# PC-3 prostate = system: PC-3 prostate
# SF-295 CNS = system: SF-295 CNS
# SF-268 CNS = system: SF-268 CNS
# A549 NSCLC = system: A549 NSCLC
# KM12 colon = system: KM12 colon
# NCI-H226 lung = system: NCI-H226 lung
# CCRF-CEM leukemia = system: CCRF-CEM leukemia
# IGROV1 ovarian = system: IGROV1 ovarian
# SW-620 colon = system: SW-620 colon
# OVCAR-5 ovarian = system: OVCAR-5 ovarian
# HT29 colon = system: HT29 colon
# UACC-257 melanoma = system: UACC-257 melanoma
# MALME-3M melanoma = system: MALME-3M melanoma
# A498 renal = system: A498 renal
# MDA-MB-231 breast = system: MDA-MB-231 breast
# SK-MEL-5 melanoma = system: SK-MEL-5 melanoma
# T-47D breast = system: T-47D breast
# M14 melanoma = system: M14 melanoma
# HCT-116 colon = system: HCT-116 colon
# OVCAR-8 ovarian = system: OVCAR-8 ovarian
# HOP-92 NSCLC = system: HOP-92 NSCLC
# UACC-62 melanoma = system: UACC-62 melanoma
# LOX IMVI melanoma = system: LOX IMVI melanoma
# TK-10 renal = system: TK-10 renal
# NCI-H322M lung = system: NCI-H322M lung
# U251 glioblastoma = system: U251 glioblastoma
# HOP-62 NSCLC = system: HOP-62 NSCLC
# SNB-19 CNS = system: SNB-19 CNS
# ACHN renal = system: ACHN renal
# DU-145 prostate = system: DU-145 prostate
structure (smiles),measurement,setting,value
C=CC(=O)N1CCN(c2nc(OC[C@@H]3CCCN3C)nc3c2CCN(c2cccc4cccc(C)c24)C3)C[C@@H]1CC#N,GI50,SK-MEL-2 melanoma,0.194 µM
same,TGI,SK-MEL-2 melanoma,0.595 µM
same,GI50,COLO 205 colon,1.23 µM
same,TGI,COLO 205 colon,2.49 µM
same,GI50,NCI/ADR-RES ovarian,1.61 µM
same,TGI,NCI/ADR-RES ovarian,2.97 µM
same,GI50,SF-539 CNS,0.644 µM
same,TGI,SF-539 CNS,1.94 µM
same,GI50,K-562 leukemia,0.918 µM
same,TGI,K-562 leukemia,2.13 µM
same,GI50,MDA-MB-468 breast,0.367 µM
same,TGI,MDA-MB-468 breast,1.02 µM
same,GI50,SN12C renal,1.24 µM
same,TGI,SN12C renal,2.5 µM
same,GI50,OVCAR-4 ovarian,0.465 µM
same,TGI,OVCAR-4 ovarian,1.69 µM
same,GI50,NCI-H23 lung,< 0.01 µM
same,GI50,RPMI-8226 leukemia,0.193 µM
same,TGI,RPMI-8226 leukemia,0.377 µM
same,GI50,SK-MEL-28 melanoma,1.62 µM
same,TGI,SK-MEL-28 melanoma,2.98 µM
same,GI50,SR leukemia,0.134 µM
same,TGI,SR leukemia,0.267 µM
same,GI50,UO-31 renal,0.983 µM
same,TGI,UO-31 renal,2.15 µM
same,GI50,NCI-H460 NSCLC,0.754 µM
same,TGI,NCI-H460 NSCLC,2.06 µM
same,GI50,HCT-15 colon,1.01 µM
same,TGI,HCT-15 colon,2.19 µM
same,GI50,RXF 393 renal,0.189 µM
same,TGI,RXF 393 renal,0.575 µM
same,GI50,HCC-2998 colon,1.23 µM
same,TGI,HCC-2998 colon,2.49 µM
same,GI50,NCI-H522 lung,0.343 µM
same,TGI,NCI-H522 lung,1.39 µM
same,GI50,MOLT-4 leukemia,0.16 µM
same,TGI,MOLT-4 leukemia,0.299 µM
same,GI50,786-0 renal,0.705 µM
same,TGI,786-0 renal,1.99 µM
same,GI50,OVCAR-3 ovarian,0.362 µM
same,TGI,OVCAR-3 ovarian,1.36 µM
same,GI50,CAKI-1 renal,0.422 µM
same,TGI,CAKI-1 renal,1.43 µM
same,GI50,HL-60(TB) leukemia,0.181 µM
same,TGI,HL-60(TB) leukemia,0.322 µM
same,GI50,SK-OV-3 ovarian,0.54 µM
same,TGI,SK-OV-3 ovarian,1.86 µM
same,GI50,BT-549 breast,0.265 µM
same,TGI,BT-549 breast,0.999 µM
same,GI50,MCF7 breast,0.834 µM
same,TGI,MCF7 breast,2.09 µM
same,GI50,MDA-MB-435 melanoma,1.22 µM
same,TGI,MDA-MB-435 melanoma,2.48 µM
same,GI50,PC-3 prostate,0.759 µM
same,TGI,PC-3 prostate,1.98 µM
same,GI50,SF-295 CNS,1.59 µM
same,TGI,SF-295 CNS,2.94 µM
same,GI50,SF-268 CNS,0.495 µM
same,TGI,SF-268 CNS,1.67 µM
same,GI50,A549 NSCLC,1.31 µM
same,TGI,A549 NSCLC,2.61 µM
same,GI50,KM12 colon,1.06 µM
same,TGI,KM12 colon,2.26 µM
same,GI50,NCI-H226 lung,1.16 µM
same,TGI,NCI-H226 lung,2.39 µM
same,GI50,CCRF-CEM leukemia,0.133 µM
same,TGI,CCRF-CEM leukemia,0.265 µM
same,GI50,IGROV1 ovarian,1.39 µM
same,TGI,IGROV1 ovarian,2.7 µM
same,GI50,SW-620 colon,1.31 µM
same,TGI,SW-620 colon,2.62 µM
same,GI50,OVCAR-5 ovarian,1.47 µM
same,TGI,OVCAR-5 ovarian,2.8 µM
same,GI50,HT29 colon,1.26 µM
same,TGI,HT29 colon,2.54 µM
same,GI50,UACC-257 melanoma,0.833 µM
same,TGI,UACC-257 melanoma,2.07 µM
same,GI50,MALME-3M melanoma,1.22 µM
same,TGI,MALME-3M melanoma,2.46 µM
same,GI50,A498 renal,0.485 µM
same,TGI,A498 renal,1.7 µM
same,GI50,MDA-MB-231 breast,0.312 µM
same,TGI,MDA-MB-231 breast,1.27 µM
same,GI50,SK-MEL-5 melanoma,1.5 µM
same,TGI,SK-MEL-5 melanoma,2.84 µM
same,GI50,T-47D breast,0.637 µM
same,TGI,T-47D breast,2.01 µM
same,GI50,M14 melanoma,1.27 µM
same,TGI,M14 melanoma,2.53 µM
same,GI50,HCT-116 colon,0.526 µM
same,TGI,HCT-116 colon,1.74 µM
same,GI50,OVCAR-8 ovarian,1.05 µM
same,TGI,OVCAR-8 ovarian,2.24 µM
same,GI50,HOP-92 NSCLC,0.223 µM
same,TGI,HOP-92 NSCLC,0.687 µM
same,GI50,UACC-62 melanoma,0.411 µM
same,TGI,UACC-62 melanoma,1.5 µM
same,GI50,LOX IMVI melanoma,1.59 µM
same,TGI,LOX IMVI melanoma,2.95 µM
same,GI50,TK-10 renal,0.505 µM
same,TGI,TK-10 renal,1.7 µM
same,GI50,NCI-H322M lung,1.44 µM
same,TGI,NCI-H322M lung,2.76 µM
same,GI50,U251 glioblastoma,1.01 µM
same,TGI,U251 glioblastoma,2.2 µM
same,GI50,HOP-62 NSCLC,< 0.01 µM
same,TGI,HOP-62 NSCLC,1.12 µM
same,GI50,SNB-19 CNS,1.57 µM
same,TGI,SNB-19 CNS,2.93 µM
same,GI50,ACHN renal,0.35 µM
same,TGI,ACHN renal,1.6 µM
same,GI50,DU-145 prostate,1.4 µM
same,TGI,DU-145 prostate,2.71 µM
